Test results reported in patent US20240374552A1, “Compositions and Methods for Preventing or Reducing the Risk of Metabolic Syndrome” (priority 2021, published 2024).

Tested on: High-Fat Diet (HFD) induced obesity model
Experiment: Effectiveness on metabolic syndrome risk factors, high-fat diet-induced obesity model
Conditions: for Food consumption (%) / Glucose (%) / Triglycerides (%) / Weight loss (%) / Body mass index / Cholesterol (%) / Fat free mass / Fat mass: purity min 95%, reduction, negative = increase
[1] = EH5: Normal diet, 0.20 mg/Kg daily 2 weeks
[2] = EH6: HFD, 0.76 mg/Kg daily 2 weeks
[3] = EH7: Normal diet, 0.76 mg/Kg daily 2 weeks
[4] = EH8: HFD, 1.75 mg/Kg daily 2 weeks
[5] = EH9: Normal diet, 1.75 mg/Kg daily 2 weeks
[6] = EH10: HFD, 5.50 mg/Kg daily 2 weeks
[7] = EH11: Normal diet, 5.50 mg/Kg daily 2 weeks
[8] = EH12: HFD, 25.00 mg/Kg daily 2 weeks
[9] = EH13: Normal diet, 25.00 mg/Kg daily 2 weeks
[10] = EH14: HFD, 55.50 mg/Kg daily 2 weeks
[11] = EH15: Normal diet, 55.50 mg/Kg daily 2 weeks
[12] = doses 0.001 mg/Kg to about 0.1999 mg/Kg
[13] = doses 0.20 mg/Kg to about 1.75 mg/Kg

From the text: Animal studies in high-fat diet-induced obesity model in a total 75 male C57BL/6/CIEABR mice 6 to 7 weeks of age.
The test system is based on the High-Fat Diet (HFD) induced obesity model.
During the quarantine period (10 days), all animals were given rodent food “PicoLab Mouse Diet 5058” food, later, they were given high fat food “Tso's High Fat Diet With Butter Fat” or “PicoLab Mouse Diet 5058” food, according to the assignment of the type of diet and treatment that each animal should consume (See table 3 and table 4).
At the end of the induction period, the administration of the different treatments began. The test product, vehicle, and controls were administered daily for two weeks. Administration was orally using curved stainless steel gastric tubes (18 G×1.5) previously sanitized; administration was performed at 11:00±1 h.
For each treatment, different parameters were quantified to determine their decrease regarding the treatment applied to each group: weight loss (%), feed consumption (%), fat free mass (g), fat mass (g), body mass index, glucose (%), cholesterol (%) and triglycerides (%).

SMILES: CC(C)(C)c1cc(C=C(C#N)C#N)cc(C(C)(C)C)c1O [tyrphostin AG17, Tyrphostin AG17]
- Food consumption (%) [1]: 22.07%
- Glucose (%) [1]: 2.15%
- Triglycerides (%) [1]: 30.75%
- Weight loss (%) [1]: 20.97%
- Body mass index [2]: 2.23
- Cholesterol (%) [2]: 1.49%
- Fat free mass [2]: 2.39 g
- Fat mass [2]: 1.21 g
- Food consumption (%) [2]: 23.81%
- Glucose (%) [2]: 2.05%
- Triglycerides (%) [2]: 33.12%
- Weight loss (%) [2]: 14.92%
- Body mass index [3]: 3.43
- Cholesterol (%) [3]: 3.38%
- Fat free mass [3]: 3.94 g
- Fat mass [3]: 7.52 g
- Food consumption (%) [3]: 30.10%
- Glucose (%) [3]: 2.04%
- Triglycerides (%) [3]: 31.74%
- Weight loss (%) [3]: 17.21%
- Body mass index [4]: 2.50
- Cholesterol (%) [4]: 2.02%
- Fat free mass [4]: -0.12 g
- Fat mass [4]: 1.05 g
- Food consumption (%) [4]: 33.11%
- Glucose (%) [4]: 2.19%
- Triglycerides (%) [4]: 33.45%
- Weight loss (%) [4]: 18.14%
- Body mass index [5]: 3.40
- Cholesterol (%) [5]: 3.43%
- Fat free mass [5]: 1.04 g
- Fat mass [5]: 6.98 g
- Food consumption (%) [5]: 35.18%
- Glucose (%) [5]: 2.43%
- Triglycerides (%) [5]: 32.42%
- Weight loss (%) [5]: 13.88%
- Body mass index [6]: 3.30
- Cholesterol (%) [6]: 2.36%
- Fat free mass [6]: -0.04 g
- Fat mass [6]: 1.28 g
- Food consumption (%) [6]: 38.09%
- Glucose (%) [6]: 3.11%
- Triglycerides (%) [6]: 34.17%
- Weight loss (%) [6]: 7.83%
- Body mass index [7]: 4.22
- Cholesterol (%) [7]: 3.44%
- Fat free mass [7]: 0.42 g
- Fat mass [7]: 5.41 g
- Food consumption (%) [7]: 47.82%
- Glucose (%) [7]: 2.03%
- Triglycerides (%) [7]: 32.56%
- Weight loss (%) [7]: 8.87%
- Body mass index [8]: 3.35
- Cholesterol (%) [8]: 2.49%
- Fat free mass [8]: -0.13 g
- Fat mass [8]: 1.20 g
- Food consumption (%) [8]: 37.27%
- Glucose (%) [8]: 4.20%
- Triglycerides (%) [8]: 37.21%
- Weight loss (%) [8]: 9.27%
- Body mass index [9]: 3.91
- Cholesterol (%) [9]: 3.45%
- Fat free mass [9]: -0.10 g
- Fat mass [9]: 5.58 g
- Food consumption (%) [9]: 40.91%
- Glucose (%) [9]: 2.10%
- Triglycerides (%) [9]: 32.45%
- Weight loss (%) [9]: 7.30%
- Body mass index [10]: 2.54
- Cholesterol (%) [10]: 2.33%
- Fat free mass [10]: -0.12 g
- Fat mass [10]: 1.06 g
- Food consumption (%) [10]: 33.12%
- Glucose (%) [10]: 4.38%
- Triglycerides (%) [10]: 37.84%
- Weight loss (%) [10]: 3.49%
- Body mass index [11]: 2.99
- Cholesterol (%) [11]: 3.58%
- Fat free mass [11]: -0.09 g
- Fat mass [11]: 5.01 g
- Food consumption (%) [11]: 41.37%
- Glucose (%) [11]: 1.91%
- Triglycerides (%) [11]: 33.32%
- Weight loss (%) [11]: 4.44%
- Concentration of triglycerides [12]: considerable decrease
- Levels of HDL and glucose [12]: maintaining the levels of HDL and glucose
- Liver damage or toxic effects [12]: low presence of liver damage or toxic effects
- Weight [12]: considerable decrease
- Concentration of triglycerides [13]: decrease
- Glucose levels [13]: maintained
- HDL levels [13]: reduced
- Weight [13]: decrease
- Effect on the liver and toxic effects (doses 0.20 mg/Kg to about 1.75 mg/Kg, high purity tyrphostin): reduced the effect on the hepatic liver as well as the toxic effects
